We go through one molecule from ChEMBL document CHEMBL4406913, “INCB050465 (Parsaclisib), a Novel Next-Generation Inhibitor of Phosphoinositide 3-Kinase Delta (PI3Kδ)” (ACS Med Chem Lett, 2019).

Active and inactive are the calls of the source. The rule behind the calls is not given here.

Data set [1] deals with T1, Phosphatidylinositol 4,5-bisphosphate 3-kinase catalytic subunit delta isoform (Homo sapiens) (UniProt O00329).
T1 sequence (whole entry): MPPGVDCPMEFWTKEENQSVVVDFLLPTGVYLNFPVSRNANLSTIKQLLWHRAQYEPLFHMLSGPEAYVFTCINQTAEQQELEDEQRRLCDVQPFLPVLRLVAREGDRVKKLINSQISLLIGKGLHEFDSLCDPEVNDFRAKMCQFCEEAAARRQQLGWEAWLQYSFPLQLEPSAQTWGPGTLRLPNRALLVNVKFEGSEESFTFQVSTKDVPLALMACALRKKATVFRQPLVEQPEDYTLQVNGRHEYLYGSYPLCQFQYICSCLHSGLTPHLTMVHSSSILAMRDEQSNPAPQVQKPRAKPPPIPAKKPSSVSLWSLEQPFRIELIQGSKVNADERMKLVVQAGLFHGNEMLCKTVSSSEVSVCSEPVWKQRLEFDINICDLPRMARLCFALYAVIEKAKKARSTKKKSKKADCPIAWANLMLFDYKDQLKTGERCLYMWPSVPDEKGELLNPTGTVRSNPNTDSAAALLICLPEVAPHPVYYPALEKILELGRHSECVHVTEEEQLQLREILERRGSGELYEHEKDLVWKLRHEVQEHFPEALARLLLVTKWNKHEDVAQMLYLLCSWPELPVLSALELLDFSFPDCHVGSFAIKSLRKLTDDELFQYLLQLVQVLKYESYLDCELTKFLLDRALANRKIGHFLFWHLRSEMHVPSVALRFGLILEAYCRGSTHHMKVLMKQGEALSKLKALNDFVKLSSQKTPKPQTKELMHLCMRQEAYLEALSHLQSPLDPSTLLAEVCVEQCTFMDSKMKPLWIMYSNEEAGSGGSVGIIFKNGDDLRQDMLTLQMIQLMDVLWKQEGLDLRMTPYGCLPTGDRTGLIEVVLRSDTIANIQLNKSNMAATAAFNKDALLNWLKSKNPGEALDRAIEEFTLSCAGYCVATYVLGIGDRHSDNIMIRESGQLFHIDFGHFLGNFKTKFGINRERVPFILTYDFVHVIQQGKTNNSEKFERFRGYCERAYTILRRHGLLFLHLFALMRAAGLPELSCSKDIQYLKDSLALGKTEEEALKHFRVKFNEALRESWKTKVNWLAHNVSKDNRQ
Description: Inhibition of PI3Kdelta (unknown origin) using D-myophosphatidylinositol 4,5-bisphosphate as substrate incubated for 120 mins by [gamma-33P]ATP based SPA assay

Data set [2] can be described thus: Terminal half life in cynomolgus monkey at 2 mg/kg, iv measured for 24 hrs by LC-MS/MS analysis. In kind it is ADME, organism-based, Macaca fascicularis. As to conditions: in vivo, read-out: beta t1/2 (converted).
Data set [3] is described as follows: Tmax in cynomolgus monkey at 4 mg/kg, po measured for 24 hrs by LC-MS/MS analysis. It is filed as ADME, organism-based, Macaca fascicularis. The note with it: in vivo.
Data set [4] in a line: Volume of distribution at steady state in rat at 4 mg/kg, iv measured for 24 hrs by LC-MS/MS analysis. As to conditions: in vivo, read-out: Vdss. In kind it is ADME, organism-based.
In a further data set the test system is Pfeiffer. The experiment in a line: Antitumor activity against human Pfeiffer cells xenografted in SCID mouse assessed as reduction in tumor growth at 1 mg/kg, po bid for 14 days measured 2-3 times weekly by digital caliper method. In kind it is functional, organism-based. On the technique in general: A xenograft is tissue or cells of one species grown in another, often human tumour cells in immunodeficient mice.

A further data set deals with SU-DHL-6. The experiment in a line: Cytotoxicity against human SUDHL6 cells assessed as reduction in cell viability incubated for 4 days by celltiter glo luminescent assay. In kind it is functional, cell-based. As to conditions: SU-DHL-6, 96 h. (In ATP-based viability assays light output follows the ATP content of the culture.)
In a further data set the target is Cytochrome P450 3A4 (Homo sapiens, UniProt P08684). The experiment in a line: Inhibition of CYP3A4 in human liver microsomes at 0.1 to 25 uM using midazolam as substrate by LC/MS analysis. It is filed as ADME. (Microsomes from liver hold many membrane-bound enzymes, among them those of drug oxidation.)
Chain of Cytochrome P450 3A4 (P08684 whole entry): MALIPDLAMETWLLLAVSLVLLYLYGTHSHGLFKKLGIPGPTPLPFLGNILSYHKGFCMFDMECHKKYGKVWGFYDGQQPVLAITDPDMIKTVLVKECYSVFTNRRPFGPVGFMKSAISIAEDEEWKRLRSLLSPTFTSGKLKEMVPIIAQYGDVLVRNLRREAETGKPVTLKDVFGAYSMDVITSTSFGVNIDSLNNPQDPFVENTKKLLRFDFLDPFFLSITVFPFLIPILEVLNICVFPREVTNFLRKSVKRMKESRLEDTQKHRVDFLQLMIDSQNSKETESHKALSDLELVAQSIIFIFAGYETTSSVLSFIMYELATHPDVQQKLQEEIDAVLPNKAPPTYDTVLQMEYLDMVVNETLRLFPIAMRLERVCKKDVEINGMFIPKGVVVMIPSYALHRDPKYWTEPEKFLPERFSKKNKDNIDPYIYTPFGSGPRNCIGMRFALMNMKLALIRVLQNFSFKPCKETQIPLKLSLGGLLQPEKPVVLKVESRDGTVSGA

A word on the Tmax: it is the time at which the peak concentration occurs. The IC50 is the concentration that inhibits the measured activity by half. As to `CCOc1c([C@H](C)n2nc(C)c3c(N)ncnc32)cc(Cl)c(F)c1[C@@H]1CNC(=O)C1` [PARSACLISIB], the inhibition result in data set [1] is “inactive”. For the same molecule, the half-life in data set [2] is 7.3 h. Further, in data set [3], the Tmax amounted to 2.5 h. Further, the Vd in data set [4] is 1.54 L/kg. For the same molecule, the inhibition entry in the data set with Pfeiffer was “Active”. Moreover, the IC50 in the data set on SU-DHL-6 amounted to 1.6 nM. For the same molecule, at Cytochrome P450 3A4, the “inhibition (INH)” value is reported as “Not Active”.
